Laboratory results as given in patent US20160317525A1 (Teva Pharmaceutical Industries, Ltd., priority 2013, published 2016).

Key:
MOG induced EAE = assay: Laquinimod combined with teriflunomide in MOG induced EAE (Example 2); assay type: in vivo, mice of the C57BL/6 strain; conditions: Day 1-30; for GMS: group mean score; for MMS: mean maximal score; for % inhibition (GMS) / % inhibition (Incidence) / % inhibition (MMS): vs vehicle
[1] = test system: experimental autoimmune encephalomyelitis; conditions: in mice; Merill et al., 2009; cited from earlier work
[2] = animal studies; cited from earlier work
[3] = 7 mg/day and 14 mg/day; O'Connor et al. 2011; cited from earlier work
CYP2C9 = CYP2C9 (Homo sapiens, UniProt P11712); conditions: O'Connor et al. 2006 and Warneke et al. 2009; cited from earlier work
CYP2C9, sequence (P11712 whole entry): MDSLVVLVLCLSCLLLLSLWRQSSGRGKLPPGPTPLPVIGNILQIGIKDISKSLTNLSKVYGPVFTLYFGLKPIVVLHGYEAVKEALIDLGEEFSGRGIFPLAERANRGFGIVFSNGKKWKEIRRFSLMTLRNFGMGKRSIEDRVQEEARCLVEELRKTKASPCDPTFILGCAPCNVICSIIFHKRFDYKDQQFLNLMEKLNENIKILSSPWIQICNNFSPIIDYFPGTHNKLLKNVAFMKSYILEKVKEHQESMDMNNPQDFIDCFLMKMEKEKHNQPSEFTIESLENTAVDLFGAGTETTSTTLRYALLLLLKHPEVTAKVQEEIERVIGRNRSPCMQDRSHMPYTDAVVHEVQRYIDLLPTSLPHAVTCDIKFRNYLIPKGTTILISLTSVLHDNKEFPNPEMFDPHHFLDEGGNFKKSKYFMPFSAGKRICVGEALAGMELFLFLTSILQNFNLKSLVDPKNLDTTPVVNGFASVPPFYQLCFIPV

For `CCN(C(=O)c1c(O)c2c(Cl)cccc2n(C)c1=O)c1ccccc1` [Laquinimod, 5-chloro-N-ethyl-4-hydroxy-1-methyl-2-oxo-N-phenyl-1,2-dihydroquinoline-3-carboxamide], the “Duration” value (MOG induced EAE; Laquinimod 5 mg/kg/day gavage) was 5.7 ± 5.1 days, the Incidence (MOG induced EAE; Laquinimod 5 mg/kg/day gavage) was 9/15 and the Mortality (MOG induced EAE; Laquinimod 5 mg/kg/day gavage) was 0/15. The “Onset” value (MOG induced EAE; Laquinimod 5 mg/kg/day gavage) was 20.5 ± 6.6 days, the “Duration” value (MOG induced EAE; Laquinimod 25 mg/kg/day gavage) was 1.3 ± 3.5 days and the Incidence (MOG induced EAE; Laquinimod 25 mg/kg/day gavage) was 2/15. For the same compound, the Mortality (MOG induced EAE; Laquinimod 25 mg/kg/day gavage) was 0/15, the “Onset” value (MOG induced EAE; Laquinimod 25 mg/kg/day gavage) was 26.3 ± 4.4 days and the GMS (MOG induced EAE; Laquinimod 5 mg/kg/day gavage) was 1.02 ± 1.01. For the same compound, the GMS (MOG induced EAE; Laquinimod 25 mg/kg/day gavage) was 0.18 ± 0.52, the MMS (MOG induced EAE; Laquinimod 5 mg/kg/day gavage) was 1.9 ± 1.8 and the MMS (MOG induced EAE; Laquinimod 25 mg/kg/day gavage) was 0.4 ± 1.1. For the same compound, the “% inhibition (GMS)” value (MOG induced EAE; Laquinimod 5 mg/kg/day gavage) was 58.4%, the “% inhibition (Incidence)” value (MOG induced EAE; Laquinimod 5 mg/kg/day gavage) was 35.7% and the “% inhibition (MMS)” value (MOG induced EAE; Laquinimod 5 mg/kg/day gavage) was 45.7%. For the same compound, the “% inhibition (GMS)” value (MOG induced EAE; Laquinimod 25 mg/kg/day gavage) was 92.7%, the “% inhibition (Incidence)” value (MOG induced EAE; Laquinimod 25 mg/kg/day gavage) was 85.7% and the “% inhibition (MMS)” value (MOG induced EAE; Laquinimod 25 mg/kg/day gavage) was 88.6%.
In the case of `C/C(O)=C(\C#N)C(=O)Nc1ccc(C(F)(F)F)cc1` [Teriflunomide, (2Z)-2-cyano-3-hydroxy-N-[4-(trifluoromethyl)phenyl]but-2-enamide], the minimal effective dose [1] is given as 3 mg/kg, the teratogenicity [2] is given as “teratogenic” and the “annualized relapse rate versus the placebo” value [3] is given as “reduce the annualized relapse rate”. For the same compound, the CYP2C9 inhibition (CYP2C9) was “inhibit CYP2C9”, the “Duration” value (MOG induced EAE; Teriflunomide 3 mg/kg gavage) was 11.6 ± 2.3 days and the Incidence (MOG induced EAE; Teriflunomide 3 mg/kg gavage) was 15/15. The Mortality (MOG induced EAE; Teriflunomide 3 mg/kg gavage) was 0/15, the “Onset” value (MOG induced EAE; Teriflunomide 3 mg/kg gavage) was 14.0 ± 1.5 days and the “Duration” value (MOG induced EAE; Teriflunomide 10 mg/kg gavage) was 7.5 ± 5.5 days. The Incidence (MOG induced EAE; Teriflunomide 10 mg/kg gavage) was 12/15, the Mortality (MOG induced EAE; Teriflunomide 10 mg/kg gavage) was 0/15 and the “Onset” value (MOG induced EAE; Teriflunomide 10 mg/kg gavage) was 18.3 ± 6.4 days. It also gave a GMS (MOG induced EAE; Teriflunomide 3 mg/kg gavage) of 2.34 ± 0.65, a GMS (MOG induced EAE; Teriflunomide 10 mg/kg gavage) of 1.40 ± 1.18 and an MMS (MOG induced EAE; Teriflunomide 3 mg/kg gavage) of 3.7 ± 0.6. For the same compound, the MMS (MOG induced EAE; Teriflunomide 10 mg/kg gavage) was 2.4 ± 1.7, the “% inhibition (GMS)” value (MOG induced EAE; Teriflunomide 3 mg/kg gavage) was 4.5% and the “% inhibition (GMS)” value (MOG induced EAE; Teriflunomide 10 mg/kg gavage) was 42.9%. The “% inhibition (Incidence)” value (MOG induced EAE; Teriflunomide 10 mg/kg gavage) was 14.3% and the “% inhibition (MMS)” value (MOG induced EAE; Teriflunomide 10 mg/kg gavage) was 31.4%.
